Data: PMC10518255, “A first-in-class pan-lysyl oxidase inhibitor impairs stromal remodeling and enhances gemcitabine response and survival in pancreatic cancer” (Nature Cancer, 2023)
Where “and” joins values, the source holds several entries; their conditions need not be identical. Identical values can stand only once.

Columns and labels:
Hepatocyte stability = format: in vitro ADME; settings: hepatocytes; In vitro (human)
[1] = Rat pharmacokinetics, single dose orally (10 mg/kg) or intravenously (5 mg/kg)
Recombinant LOXL-3 = molecular target: T1, Recombinant LOXL-3 (Homo sapiens, UniProt P58215); assay: Lysyl oxidase enzymatic activity, fluorescence-based assay, IC50; format: biochemical
T1 sequence (P58215 26-753): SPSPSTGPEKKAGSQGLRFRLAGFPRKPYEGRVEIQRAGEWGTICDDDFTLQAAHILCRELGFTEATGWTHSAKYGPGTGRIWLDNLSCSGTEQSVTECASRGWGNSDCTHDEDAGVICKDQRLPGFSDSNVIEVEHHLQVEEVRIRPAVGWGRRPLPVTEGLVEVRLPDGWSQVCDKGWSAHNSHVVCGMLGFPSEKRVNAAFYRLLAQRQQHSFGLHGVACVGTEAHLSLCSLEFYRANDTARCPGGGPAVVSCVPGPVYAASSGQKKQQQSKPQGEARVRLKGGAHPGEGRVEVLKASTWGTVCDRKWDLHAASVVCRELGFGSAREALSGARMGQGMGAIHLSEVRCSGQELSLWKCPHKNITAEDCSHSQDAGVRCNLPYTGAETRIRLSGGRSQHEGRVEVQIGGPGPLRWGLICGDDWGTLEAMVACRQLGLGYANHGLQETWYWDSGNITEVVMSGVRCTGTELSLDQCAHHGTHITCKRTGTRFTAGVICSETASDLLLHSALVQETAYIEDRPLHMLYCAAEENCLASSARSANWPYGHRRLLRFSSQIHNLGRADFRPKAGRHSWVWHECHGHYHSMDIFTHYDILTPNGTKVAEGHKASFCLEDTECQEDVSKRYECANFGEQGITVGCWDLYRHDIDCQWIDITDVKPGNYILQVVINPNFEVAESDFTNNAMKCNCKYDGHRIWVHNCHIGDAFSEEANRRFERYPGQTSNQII
From the text: (§1) Data are presented as mean ± s.d. […] Data presented as mean ± s.d. […] Source data TEXT PRINTED IN THE PICTURE: (b) PXS-5505: Recombinant DAO IC50 (nM): >30,000; Recombinant SSAO/VAP1 IC50 (nM): >30,000; Recombinant MAO-A IC50 (nM): >30,000; Recombinant MAO-B IC50 (nM): >30,000 | (f) PXS-5505: Fibroblast LOX IC50 (nM): 4,930; Recombinant LOXL-1 IC50 (nM): 1,590; Recombinant LOXL-2 IC50 (nM): 570; Recombinant LOXL-3 IC50 (nM): 1,800; Recombinant LOXL-4 IC50 (nM): 190
(§2) In characterizing PXS-5505, the half-maximum inhibitory concentration (IC50) values for each of the lysyl oxidase family members were determined by measuring enzymatic activity using a fluorescence-based assay.
(§3) Data presented as mean values +/− SD. f. […] Data presented as mean values +/− SD. […] Data presented as mean values +/− SD. […] Data presented as mean values +/− SD. Ordinary one-way ANOVA for multiple comparison test performed. Source data

LOXL2 = molecular target: T2, LOXL2 (Homo sapiens, UniProt Q9Y4K0); assay: as above; format: biochemical
T2 sequence (Q9Y4K0 26-774): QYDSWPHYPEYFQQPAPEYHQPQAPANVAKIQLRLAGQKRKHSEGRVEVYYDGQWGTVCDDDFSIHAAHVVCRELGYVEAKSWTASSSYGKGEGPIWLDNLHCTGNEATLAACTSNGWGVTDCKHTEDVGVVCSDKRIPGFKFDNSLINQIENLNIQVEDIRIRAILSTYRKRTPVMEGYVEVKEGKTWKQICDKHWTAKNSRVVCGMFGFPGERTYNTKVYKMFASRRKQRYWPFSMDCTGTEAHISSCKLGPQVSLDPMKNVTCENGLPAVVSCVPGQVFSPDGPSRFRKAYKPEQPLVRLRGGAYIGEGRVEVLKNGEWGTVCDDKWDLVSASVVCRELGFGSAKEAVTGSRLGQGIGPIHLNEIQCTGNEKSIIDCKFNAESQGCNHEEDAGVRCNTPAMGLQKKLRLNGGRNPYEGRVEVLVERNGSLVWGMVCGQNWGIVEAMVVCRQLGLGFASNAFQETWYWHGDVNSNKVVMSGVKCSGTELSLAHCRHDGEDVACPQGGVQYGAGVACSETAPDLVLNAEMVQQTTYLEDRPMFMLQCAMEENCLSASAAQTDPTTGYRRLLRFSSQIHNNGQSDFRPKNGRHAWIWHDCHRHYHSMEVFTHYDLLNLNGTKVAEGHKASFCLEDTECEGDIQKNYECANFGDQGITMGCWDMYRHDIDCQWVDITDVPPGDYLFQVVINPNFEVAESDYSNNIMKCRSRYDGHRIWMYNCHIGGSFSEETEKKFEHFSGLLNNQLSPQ
From the text: as §1, §2, §3

[2] = log(Concentration) -4.52288, replicates, 30 µM
[3] = log(Concentration) -5, replicates, 10 µM
[4] = log(Concentration) -5.47712, replicates, 3.333 µM
[5] = log(Concentration) -5.95424, replicates, 1.111 µM
[6] = log(Concentration) -6.43136, replicates, 0.3704 µM
[7] = log(Concentration) -6.90849, replicates, 0.1235 µM
[8] = log(Concentration) -7.38561, replicates, 0.04115 µM
[9] = log(Concentration) -7.86273, replicates, 0.01372 µM
[10] = log(Concentration) -8.33985, replicates, 0.004572 µM
[11] = log(Concentration) -8.81697, replicates, 0.001524 µM
[12] = log(Concentration) -9.29409, replicates, 0.000508 µM

Compound `Cl.Cl.NC/C=C(\F)CS(=O)(=O)c1cccc2cccnc12.O` [PXS-5505, (Z)-3-fluoro-4-(quinolin-8-ylsulfonyl)but-2-en-1-amine dihydrochloride monohydrate] has a remaining at 1 h (Hepatocyte stability) of 90%, a Plasma concentration ([1]; 5 mg/kg iv, 0.03 hrs) of 10.145 and a Plasma concentration ([1]; 5 mg/kg iv, 0.17 hrs) of 4.593. The Plasma concentration ([1]; 5 mg/kg iv, 0.5 hrs) was 2.135, the Plasma concentration ([1]; 5 mg/kg iv, 1 hrs) was 0.7139 and the Plasma concentration ([1]; 5 mg/kg iv, 2 hrs) was 0.1589. It also gave a Plasma concentration ([1]; 5 mg/kg iv, 3 hrs) of 0.055, a Plasma concentration ([1]; 5 mg/kg iv, 5 hrs) of 0.008393 and a Plasma concentration ([1]; 10 mg/kg oral, 0.25 hrs) of 2.305. For the same compound, the Plasma concentration ([1]; 10 mg/kg oral, 0.5 hrs) was 3.551, the Plasma concentration ([1]; 10 mg/kg oral, 1 hrs) was 3.399 and the Plasma concentration ([1]; 10 mg/kg oral, 2 hrs) was 0.9. The Plasma concentration ([1]; 10 mg/kg oral, 3 hrs) was 0.198, the Plasma concentration ([1]; 10 mg/kg oral, 5 hrs) was 0.02554 and the Plasma concentration ([1]; 10 mg/kg oral, 8 hrs) was 0.0075. The AUC(0-t) ([1]; plasma, po, 10 mg/kg) was 1600 ng·h/mL, the Cmax ([1]; plasma, po, 10 mg/kg) was 1000 ng/mL and the Tmax ([1]; plasma, po, 10 mg/kg) was 48 min. For the same compound, the bioavailability ([1]; plasma, po, 10 mg/kg, Bioavailability (F)) was 75%, the half-life ([1]; plasma, po, 10 mg/kg, T1/2, rat) was 42 min and the bioavailability ([1]; plasma, po, 10 mg/kg, bioavailability, oral administration, for rodents) was > 75%. For the same compound, the half-life ([1]; plasma, po, 10 mg/kg, half-life, oral administration) was ~60 min, the IC50 (Recombinant LOXL-3) was 1800 nM and the “LOXL3 activity, IC50 determination curve” value (Recombinant LOXL-3; [2]) was 0.995 and -0.1448 and -2.1827. The “LOXL3 activity, IC50 determination curve” value (Recombinant LOXL-3; [3]) was 5.702, the “LOXL3 activity, IC50 determination curve” value (Recombinant LOXL-3; [4]) was 36.152 and 26.2163 and the “LOXL3 activity, IC50 determination curve” value (Recombinant LOXL-3; [5]) was 67.7528 and 54.7261. For the same compound, the “LOXL3 activity, IC50 determination curve” value (Recombinant LOXL-3; [6]) was 85.8582 and 75.7761, the “LOXL3 activity, IC50 determination curve” value (Recombinant LOXL-3; [7]) was 94.2403 and 83.1634 and the “LOXL3 activity, IC50 determination curve” value (Recombinant LOXL-3; [8]) was 97.9203 and 84.9527. The “LOXL3 activity, IC50 determination curve” value (Recombinant LOXL-3; [9]) was 99.768 and 85.7835, the “LOXL3 activity, IC50 determination curve” value (Recombinant LOXL-3; [10]) was 101.158 and 89.5879 and the “LOXL3 activity, IC50 determination curve” value (Recombinant LOXL-3; [11]) was 100.452 and 87.3896. The “LOXL3 activity, IC50 determination curve” value (Recombinant LOXL-3; [12]) was 100.732 and 88.8381, the activity at 10 µM (Recombinant LOXL-3; read-out: LOXL3 activity, IC50 determination curve, log(Concentration) -5, replicates) was 7.74% and the activity at 3.333 µM (Recombinant LOXL-3; read-out: LOXL3 activity, IC50 determination curve, log(Concentration) -5.47712, replicates) was 30.5%. The activity at 1.111 µM (Recombinant LOXL-3; read-out: LOXL3 activity, IC50 determination curve, log(Concentration) -5.95424, replicates) was 62.6%, the activity at 0.3704 µM (Recombinant LOXL-3; read-out: LOXL3 activity, IC50 determination curve, log(Concentration) -6.43136, replicates) was 82.5% and the activity at 0.1235 µM (Recombinant LOXL-3; read-out: LOXL3 activity, IC50 determination curve, log(Concentration) -6.90849, replicates) was 98.2%. The activity at 0.04115 µM (Recombinant LOXL-3; read-out: LOXL3 activity, IC50 determination curve, log(Concentration) -7.38561, replicates) was 96.9%, the activity at 0.01372 µM (Recombinant LOXL-3; read-out: LOXL3 activity, IC50 determination curve, log(Concentration) -7.86273, replicates) was 96.8% and the activity at 0.004572 µM (Recombinant LOXL-3; read-out: LOXL3 activity, IC50 determination curve, log(Concentration) -8.33985, replicates) was 99.1%. It also gave an activity at 0.001524 µM (Recombinant LOXL-3; read-out: LOXL3 activity, IC50 determination curve, log(Concentration) -8.81697, replicates) of 100%, an activity at 0.000508 µM (Recombinant LOXL-3; read-out: LOXL3 activity, IC50 determination curve, log(Concentration) -9.29409, replicates) of 99.7% and an IC50 (LOXL2) of 570 nM. The “LOXL2 activity, IC50 determination curve” value (LOXL2; [2]) was 0.9304 and 1.355 and 0.47 and 0.4711 and 0.6366 and 0.3339 and 2.414 and 1.859 and 1.553 and 2.478, the “LOXL2 activity, IC50 determination curve” value (LOXL2; [3]) was 0.791 and 0.552 and 3.171 and 2.146 and 2.6 and 2.324 and 4.194 and 15.0185 and 14.1707 and 8.37 and the “LOXL2 activity, IC50 determination curve” value (LOXL2; [4]) was 9.121 and 8.824 and 12.3933 and 6.2776 and 9.388 and 8.093 and 13.2114 and 39.9206 and 33.7785 and 20.6899. For the same compound, the “LOXL2 activity, IC50 determination curve” value (LOXL2; [5]) was 20.2389 and 25.6139 and 36.0073 and 28.0488 and 26.7357 and 24.6346 and 38.4827 and 46.4776 and 45.1428 and 35.5222, the “LOXL2 activity, IC50 determination curve” value (LOXL2; [6]) was 49.7826 and 57.6495 and 70.9317 and 50.7979 and 55.1496 and 52.5589 and 67.2849 and 60.9084 and 60.7641 and 53.7886 and the “LOXL2 activity, IC50 determination curve” value (LOXL2; [7]) was 78.7223 and 82.1964 and 89.3928 and 77.9843 and 81.0351 and 77.3849 and 88.1863 and 70.6401 and 64.9941 and 65.916. For the same compound, the “LOXL2 activity, IC50 determination curve” value (LOXL2; [8]) was 84.6124 and 93.105 and 97.9338, the “LOXL2 activity, IC50 determination curve” value (LOXL2; [9]) was 94.5455 and 97.658 and 97.7862 and 96.4122 and 96.1969 and 92.4844 and 101.479 and 86.0269 and 80.2817 and 84.4595 and the “LOXL2 activity, IC50 determination curve” value (LOXL2; [10]) was 93.002 and 104.67 and 103.129 and 98.6809 and 97.1184 and 102.587 and 94.1262 and 87.5963 and 94.8578. For the same compound, the “LOXL2 activity, IC50 determination curve” value (LOXL2; [11]) was 103.323 and 104.142 and 98.8815 and 101.169 and 98.4227 and 104.725 and 98.8974 and 89.6166 and 94.7795, the “LOXL2 activity, IC50 determination curve” value (LOXL2; [12]) was 94.0836 and 101.708 and 97.4085 and 100.105 and 99.6157 and 105.819 and 98.717 and 92.3043 and 96.8459 and the activity at 0.004572 µM (LOXL2; read-out: LOXL2 activity, IC50 determination curve, log(Concentration) -8.33985, replicates) was 91.8%. It also gave an activity at 0.001524 µM (LOXL2; read-out: LOXL2 activity, IC50 determination curve, log(Concentration) -8.81697, replicates) of 95.1% and an activity at 0.000508 µM (LOXL2; read-out: LOXL2 activity, IC50 determination curve, log(Concentration) -9.29409, replicates) of 92%.
